Results taken from ChEMBL document CHEMBL1141821, “Bioactive sesquiterpenes from a Taiwanese marine sponge Parahigginsia sp” (J Nat Prod, 1999).
≈ marks a conversion by molar mass, not a printed value.

Tests used:
Assay type in all cases: functional, cell-based
P388 = assay: Cytotoxicity against mouse P388 cells after 3 days by MTT assay; conditions: P388, 72 h
HT-29 = assay: Cytotoxicity against human HT-29 cells after 6 days by MTT assay; conditions: HT-29, 144 h
[1] = Cytotoxicity against human KB16 cells after 3 days by MTT assay; conditions: KB16, 72 h
A549 = assay: Cytotoxicity against human A549 cells after 6 days by MTT assay; conditions: A549, 144 h

Row | Structure (SMILES) | IC50 (P388) | IC50 (HT-29) | IC50 [1] | IC50 (A549)
1 | CC(C)=CCC[C@H](C)c1ccc(C)cc1O | 0.1 µg/mL (≈ 0.458 µM) | 8.1 µg/mL (≈ 37.1 µM) | 8.3 µg/mL (≈ 38 µM) | 
2 | COc1cc(C(=O)O)ccc1C(C)/C=C/C=C(C)C (stereo not drawn) [PARAHIGGINIC ACID] | 1 µg/mL (≈ 3.84 µM) | 6 µg/mL (≈ 23 µM) | 4.8 µg/mL (≈ 18.4 µM) | 3.9 µg/mL (≈ 15 µM)
3 | Cc1ccc(C(C)CC(O)CC(C)C)c(O)c1 (stereo not drawn) [PARAHIGGINOL A] | > 50 µg/mL | > 50 µg/mL | > 50 µg/mL | > 50 µg/mL
4 | CC(=O)OC(CC(C)C)CC(C)c1ccc(C=O)cc1O (stereo not drawn) [PARAHIGGINOL B] | 3 µg/mL (≈ 10.3 µM) | 3.5 µg/mL (≈ 12 µM) | 4.9 µg/mL (≈ 16.8 µM) | 10 µg/mL (≈ 34.2 µM)
5 | CC(=O)OC(CC(C)C)CC(C)c1ccc(C)cc1O (stereo not drawn) [PARAHIGGINOL C] | 2.5 µg/mL (≈ 8.98 µM) | 2.6 µg/mL (≈ 9.34 µM) | 3.9 µg/mL (≈ 14 µM) | 2.8 µg/mL (≈ 10.1 µM)
6 | CC(C)=C/C=C/C(C)c1ccc(C=O)c(O)c1O (stereo not drawn) [PARAHIGGINOL D] | 2.9 µg/mL (≈ 11.8 µM) | 3.3 µg/mL (≈ 13.4 µM) | 7.2 µg/mL (≈ 29.2 µM) | 3.8 µg/mL (≈ 15.4 µM)
